Assay results taken from article PMC3199943, “Screening the MayBridge Rule of 3 Fragment Library for Compounds That Interact with the Trypanosoma brucei myo-Inositol-3-Phosphate Synthase and/or Show Trypanocidal Activity” (Molecular Biology International, 2011).
Where two headings read alike, the source gives them in different places.

What was measured:
[1] = target: T1, TbINO1 (Trypanosoma brucei brucei, UniProt Q5QQ46); test: biochemical; format: binding; settings: for Tb Ino1 Tm Shift [˚C]: Supplementary Table 1, compound 1mM, mean ± SD from Boltzman curve fitting
T1 sequence (Q5QQ46 1-528): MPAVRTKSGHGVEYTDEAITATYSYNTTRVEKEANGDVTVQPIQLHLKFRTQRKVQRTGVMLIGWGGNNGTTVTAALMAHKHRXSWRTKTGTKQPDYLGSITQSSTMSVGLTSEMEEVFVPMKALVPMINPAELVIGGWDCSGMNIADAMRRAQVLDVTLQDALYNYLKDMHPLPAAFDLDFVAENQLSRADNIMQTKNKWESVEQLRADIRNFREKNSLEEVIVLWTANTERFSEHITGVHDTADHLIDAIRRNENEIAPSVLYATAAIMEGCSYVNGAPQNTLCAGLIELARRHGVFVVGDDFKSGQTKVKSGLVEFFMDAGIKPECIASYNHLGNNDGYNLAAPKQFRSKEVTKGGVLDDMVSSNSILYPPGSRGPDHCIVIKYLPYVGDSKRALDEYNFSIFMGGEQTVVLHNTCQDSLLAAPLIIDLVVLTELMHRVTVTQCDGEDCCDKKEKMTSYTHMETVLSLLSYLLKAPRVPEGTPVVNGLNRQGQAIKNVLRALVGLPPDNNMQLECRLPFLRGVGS

[2] = test system: HeLa cells; test: cells; settings: for HeLa Cells Alamar Blue: Supplementary Table 1; for viability at 500 µM: 65 h
How it was run: (§1)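 HeLa and A549 cells grown in DMEM with 10% FCS and 2 mM L-Glutamine were seeded at 2 × 10^4 cells/well. They were exposed to compounds for ~65 hours, then Alamar Blue was added for a further 5 hours to measure viability.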

[3] = test system: A549 cells; test: Cytotoxicity against A549 cells, Alamar Blue; format: cell-based; settings: Supplementary Table 1, compound 0.5 mM, percentage of controls (n=1); for viability at 500 µM: Homo sapiens, A549, 65 h
How it was run: as §1

[4] = compound 0.5 mM, percentage of controls, mean ± SD (n=3) or SE (n=2)
[5] = read-out: Tb Ino1 Tm Shift [˚C]
[6] = Homo sapiens, HeLa, read-out: HeLa Cells Alamar Blue
[7] = Homo sapiens, HeLa, read-out: HeLa Cells Alamar Blue (% survival)
[8] = Homo sapiens, HeLa, read-out: HeLa Cells Alamar Blue, Supplementary Table 1, compound 0.5 mM, percentage of controls, mean ± SD (n=3) or SE (n=2)

Row | Compound | ΔTm at 1000 µM [1, 5] [°C] | viability at 500 µM [2, 6] [%] | viability at 500 µM [3] [%] | also measured
1 | Cc1cc(C(N)=S)n(C)n1 [compound 227, 1,3‐dimethyl‐1H‐pyrazole‐5‐carbothioamide] |  |  |  | Tb Ino1 Tm Shift [˚C] [1]: 0.57 ± 0.1 °C; HeLa Cells Alamar Blue [2, 4]: 106.7 ± 5.8 percentage of controls; A549 Cells Alamar Blue [3]: 50.9 percentage of controls
2 | COC(=O)c1cccs1 [compound 138, methyl thiophene‐2‐carboxylate] | 0.31 ± 0.05 | 89.4 ± 9.3 | 121 | 
3 | OCc1nccs1 [compound 38, 1,3‐thiazol‐2‐ylmethanol] | 0.18 ± 0.09 | 99.4 ± 4.1 | 95 | 
4 | OCc1ccccc1N1CCOCC1 [compound 580, (2‐morpholinophenyl)methanol] | 0.34 ± 0.06 | 91.3 ± 16 | 123 | 
5 | Cc1ccc2cc(C(=O)O)ccc2n1 [compound 510, 2‐methyl‐6‐quinolinecarboxylic acid] | 0.12 ± 0.08 | 117 ± 10.8 | 126 | 
6 | O=C1CC(C(=O)O)c2ccccc21 (stereo not drawn) [compound 409, 3‐oxoindane‐1‐carboxylic acid] | 0.03 ± 0.07 | 107 ± 10.9 | 92 | 
7 | CNCc1ccc(-c2ccccn2)cc1 [compound 607, N‐methyl‐N‐(4‐pyridin‐2‐ylbenzyl)amine] | 0.02 ± 0.06 | 57.7 ± 17.1 | 71.5 | 
8 | CCC1CCC(N)CC1 (stereo not drawn) [compound 84, 4‐ethylcyclohexanamine] | 0.44 ± 0.06 | 90.7 ± 14.2 | 118 | 
9 | Cn1ccc2cc(C(=O)O)ccc21 [compound 394, 1‐methyl‐1H‐indole‐5‐carboxylic acid] | 0 | 95 ± 12.2 | 82 | 
10 | CNCc1ccc2c(c1)OCO2 [compound 305, N‐(1,3‐benzodioxol‐5‐ylmethyl)‐N‐methylamine] |  |  |  | Tb Ino1 Tm Shift [˚C] [1]: 1.12 ± 0.05 °C; HeLa Cells Alamar Blue [2, 4]: 56.8 ± 29.4 percentage of controls; A549 Cells Alamar Blue [3]: 58.3 percentage of controls
11 | CC(=O)c1ccc(C#N)s1 [compound 198, 5‐acetylthiophene‐2‐carbonitrile] | 0.24 ± 0.07 | 93.3 ± 15.3 | 61.2 | 
12 | OCc1cccc(N2CCOCC2)c1 [compound 579, (3‐morpholinophenyl)methanol] | 0.18 ± 0.08 | 100 ± 13.5 | 101 | 
13 | O=C(O)c1ccc(-c2nccs2)cc1 [compound 662, 4‐(1,3‐thiazol‐2‐yl)benzoic acid] | 0.36 ± 0.06 | 102 ± 7.2 | 100 | 
14 | Cc1ccc(C(N)=O)c(N)c1 [compound 190, 2-amino-4-methylbenzamide] |  | 46.7 ± 23.7 | 106 | ΔTm at 1000 µM ([1]; read-out: TbIno1 Tm shift [°C]): 1.52 ± 0.06 °C; viability at 500 µM [2, 7]: 46.7 ± 23.7%
15 | NCc1ccccc1N1CCOCC1 [compound 571, 2‐morpholinobenzylamine] | 0.06 ± 0.07 | 95 ± 17.5 | 70.9 | 
16 | Cn1c(CO)cc2sccc21 [compound 331, (4-methyl-4H-thieno[3,2-b]pyrrol-5-yl)methanol] |  | 93.6 ± 14.9 | 121 | ΔTm at 1000 µM ([1]; read-out: TbIno1 Tm shift [°C]): 1.54 ± 0.07 °C; viability at 500 µM [2, 7]: 93.6 ± 14.9%; CC50 ([2]; Homo sapiens, HeLa, read-out: HeLa ED50): 169 ± 10 µM
17 | O=C(O)CCC(=O)c1cccs1 [compound 478, 4-oxo-4-(2-thienyl)butanoic acid] |  | 106 ± 9.3 | 92.3 | ΔTm at 1000 µM ([1]; read-out: TbIno1 Tm shift [°C]): 2.58 ± 0.05 °C; viability at 500 µM [2, 7]: 106 ± 9.3%
18 | Nc1cccc(-n2cccc2)c1 [compound 251, 3‐(1H‐pyrrol‐1‐yl)aniline] | 0.15 ± 0.05 | 80.5 ± 3.4 | 79.8 | 
19 | Nc1cc(-c2cccs2)[nH]n1 [compound 313, 5‐thien‐2‐yl‐1H‐pyrazol‐3‐amine] | 0.69 ± 0.08 | 101 ± 18.9 | 81.7 | 
20 | Oc1ccc(F)cc1 [compound 29, 4‐fluorophenol] | 0.23 ± 0.08 |  | 88.4 | viability at 500 µM [2, 8]: 96.2 ± 7.7%
21 | N#CCc1nc2ccccc2s1 [compound 387, 2‐(1,3‐benzothiazol‐2‐yl)acetonitrile] | 1.29 ± 0.14 | 86.4 ± 10.4 | 81 | 

Row | Compound | ΔTm at 1000 µM [1, 5] [°C] | viability at 500 µM [2, 6] [%] | viability at 500 µM [3] [%] | also measured
22 | COC(=O)c1ccccc1-n1cccc1 [compound 628, methyl 2‐(1H‐pyrrol‐1‐yl)benzoate] | 0.84 ± 0.08 | 70.4 ± 14 | 85.1 | 
23 | CCOC(=O)C1CSCCN1 (stereo not drawn) [compound 402, ethyl thiomorpholine‐3‐carboxylate] | 0.45 ± 0.08 | 107 ± 18.3 | 95.2 | 
24 | Nc1ccccc1CN1CCOCC1 [compound 570, 2‐(morpholin‐4‐ylmethyl)aniline] | 0.35 ± 0.05 | 93.2 ± 17.1 | 104 | 
25 | COC(=O)c1cccc(C)c1 [compound 185, methyl 3‐methylbenzoate] | 0.14 ± 0.09 | 106 ± 10.4 | 61.3 | 
26 | Cn1c(=O)cc(O)c2ccccc21 [compound 395, 4-hydroxy-1-methyl-1,2-dihydroquinolin-2-one] |  | 93 ± 0.3 | 174 | ΔTm at 1000 µM ([1]; read-out: TbIno1 Tm shift [°C]): 1.62 ± 0.03 °C; viability at 500 µM [2, 7]: 93 ± 0.3%
27 | CC1(C(=O)O)CC2C=CC1C2 (stereo not drawn) [compound 205, 2‐methylbicyclo[2.2.1]hept‐5‐ene‐2‐carboxylic acid] |  |  |  | Tb Ino1 Tm Shift [˚C] [1]: 0.08 ± 0.08 °C; HeLa Cells Alamar Blue [2, 4]: 92.1 ± 17.2 percentage of controls; A549 Cells Alamar Blue [3]: 53.8 percentage of controls
28 | NC(=O)c1ccccc1C(F)(F)F [compound 532, 2‐(trifluoromethyl)benzamide] | 0.43 ± 0.07 | 88.3 ± 6.5 | 59.4 | 
29 | C#CCN1CCS(=O)(=O)CC1 [compound 379, 4‐(Prop‐2‐ynyl)thiomorpholine 1,1‐dioxide] |  |  |  | Tb Ino1 Tm Shift [˚C] [1]: 0.32 ± 0.08 °C; HeLa Cells Alamar Blue [2, 4]: 95.6 ± 12.9 percentage of controls; A549 Cells Alamar Blue [3]: 154 percentage of controls
30 | Cc1nc(-c2ccc(C#N)cc2)cs1 [compound 625, 4‐(2‐methyl‐1,3‐thiazol‐4‐yl)benzonitrile] | 1.06 ± 0.07 | 74.1 ± 7.1 | 79.4 | 
31 | C#Cc1ccc(OC)cc1 [compound 96, 1‐eth‐1‐ynyl‐4‐methoxybenzene] | 0.48 ± 0.06 | 94 ± 4.9 | 111 | 
32 | COC(=O)C1NCCS1 (stereo not drawn) [compound 44] | 0.11 ± 0.06 | 85.7 ± 19.3 | 75.7 | ΔTm at 1000 µM ([1]; read-out: TbIno1 Tm shift [°C]): 2.81 ± 0.1 °C; viability at 500 µM [2, 7]: 108 ± 15.9%
33 | CCOC(=O)Cc1csc(C)n1 [compound 494, ethyl 2‐(2‐methyl‐1,3‐thiazol‐4‐yl)acetate] | 0.99 ± 0.08 | 103 ± 17.9 | 120 | 
34 | CC(=O)c1ccc(S(C)(=O)=O)cc1 [compound 604, 1‐[4‐(methylsulfonyl)phenyl]ethan‐1‐one] | 0.18 ± 0.06 | 83.1 ± 19.6 | 63.9 | 
35 | CC1CCN(CC(C)(C)N)CC1 [compound 349, 2‐methyl‐1‐(4‐methylpiperidino)‐2‐propanamine] |  |  |  | Tb Ino1 Tm Shift [˚C] [1]: 0.53 ± 0.06 °C; HeLa Cells Alamar Blue [2, 4]: 108.4 ± 7.2 percentage of controls; A549 Cells Alamar Blue [3]: 144.1 percentage of controls
36 | CNCc1cccc(-c2ccncc2)c1 [compound 605, N‐methyl‐N‐(3‐pyridin‐4‐ylbenzyl)amine] | 0.05 ± 0.07 | 21.3 ± 13.8 | 36.2 | 
37 | CC(=O)c1sccc1N [compound 133, 1‐(3‐amino‐2‐thienyl)ethan‐1‐one] | 1.24 ± 0.07 | 83 ± 12.2 | 100 | 
38 | Nc1ccc2c(c1)OCO2 [compound 121, 1,3‐benzodioxol‐5‐amine] | 0.72 ± 0.07 | 76.7 ± 16 | 110 | 
39 | Cc1cc(CO)c(-c2ccccc2)o1 [compound 522, (5-methyl-2-phenyl-3-furyl)methanol] |  | 24.3 ± 17.4 | 27.1 | ΔTm at 1000 µM ([1]; read-out: TbIno1 Tm shift [°C]): 1.61 ± 0.06 °C; viability at 500 µM [2, 7]: 24.3 ± 17.4%
40 | O=C(O)c1cc2sccc2[nH]1 [compound 328, 4H-thieno[3,2-b]pyrrole-5-carboxylic acid] |  |  | 136 | ΔTm at 1000 µM ([1]; read-out: TbIno1 Tm shift [°C]): 2.29 ± 0.1 °C; viability at 500 µM ([2]; Homo sapiens, HeLa, read-out: HeLa Cells Alamar Blue (% survival), compound 0.5 mM, percentage of controls): 106 ± 6.9%; viability at 500 µM [2, 8]: 106 ± 6.9%
41 | Cn1cncc1C#N [compound 15, 1‐methyl‐1H‐imidazole‐5‐carbonitrile] | 0.08 ± 0.07 | 101 ± 9.5 | 90 | 
